In ChEMBL document CHEMBL3407356, “Design, synthesis, biological evaluation and molecular modeling of dihydropyrazole sulfonamide derivatives as potential COX-1/COX-2 inhibitors” (Bioorg Med Chem Lett, 2015):

Assays:
[1] = Antiproliferative activity against mouse B16F10 cells after 24 hrs by MTT assay; format: functional, cell-based; settings: B16-F10, 24 h
MCF7 = assay: Antiproliferative activity against human MCF7 cells after 24 hrs by MTT assay; format: functional, cell-based; settings: MCF7, 24 h
HeLa = assay: Antiproliferative activity against human HeLa cells after 24 hrs by MTT assay; format: functional, cell-based
[2] = biological target: Prostaglandin G/H synthase 1 (Homo sapiens, UniProt P23219); assay: Inhibition of human recombinant COX1 by ELISA
[3] = biological target: T1, Prostaglandin G/H synthase 2 (Homo sapiens, UniProt P35354); assay: Inhibition of human recombinant COX2 by ELISA
T1 sequence (P35354 whole entry): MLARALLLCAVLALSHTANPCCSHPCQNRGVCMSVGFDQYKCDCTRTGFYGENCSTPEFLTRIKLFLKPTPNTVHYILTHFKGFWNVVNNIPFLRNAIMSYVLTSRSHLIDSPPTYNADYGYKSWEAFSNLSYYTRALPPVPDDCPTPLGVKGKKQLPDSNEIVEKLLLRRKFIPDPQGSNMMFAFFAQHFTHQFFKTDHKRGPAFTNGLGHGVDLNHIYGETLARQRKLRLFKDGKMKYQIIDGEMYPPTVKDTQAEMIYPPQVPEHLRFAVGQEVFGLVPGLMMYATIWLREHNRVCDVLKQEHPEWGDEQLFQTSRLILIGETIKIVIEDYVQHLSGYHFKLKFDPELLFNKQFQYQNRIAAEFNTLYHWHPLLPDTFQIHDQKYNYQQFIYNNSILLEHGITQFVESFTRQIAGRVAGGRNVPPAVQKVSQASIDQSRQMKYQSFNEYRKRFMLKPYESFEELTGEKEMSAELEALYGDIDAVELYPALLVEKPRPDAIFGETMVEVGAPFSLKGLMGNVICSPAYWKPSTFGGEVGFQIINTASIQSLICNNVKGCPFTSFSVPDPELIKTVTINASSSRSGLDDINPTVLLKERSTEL

[4] = Cytotoxicity against human 293T cells after 24 hrs by MTT assay; format: cell-based; settings: HEK-293T cells

Prostaglandin G/H synthase 1, sequence (P23219 whole entry): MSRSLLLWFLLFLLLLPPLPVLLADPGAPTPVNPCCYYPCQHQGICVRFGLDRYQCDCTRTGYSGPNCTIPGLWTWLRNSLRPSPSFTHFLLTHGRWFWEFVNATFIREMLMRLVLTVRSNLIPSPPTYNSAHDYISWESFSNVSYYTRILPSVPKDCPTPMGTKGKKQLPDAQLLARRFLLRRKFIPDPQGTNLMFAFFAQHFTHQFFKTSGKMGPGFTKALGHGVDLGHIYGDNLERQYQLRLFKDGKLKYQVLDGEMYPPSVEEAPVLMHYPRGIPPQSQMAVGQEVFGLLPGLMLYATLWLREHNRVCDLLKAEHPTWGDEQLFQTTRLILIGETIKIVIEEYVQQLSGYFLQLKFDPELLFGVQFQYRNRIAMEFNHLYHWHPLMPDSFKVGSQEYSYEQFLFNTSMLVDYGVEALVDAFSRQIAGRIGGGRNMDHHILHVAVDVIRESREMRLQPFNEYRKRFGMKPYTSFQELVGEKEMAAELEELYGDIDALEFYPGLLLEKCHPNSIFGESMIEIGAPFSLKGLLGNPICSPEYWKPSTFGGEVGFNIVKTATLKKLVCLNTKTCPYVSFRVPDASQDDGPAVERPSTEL

SMILES | IC50 [1] | IC50 (MCF7) | IC50 (HeLa) | IC50 [2] | IC50 [3] | CC50 at 24 h [4]
NS(=O)(=O)c1ccc(N2N=C3c4ccccc4CCC3C2c2ccccc2Cl)cc1 (configuration not stated) | 20.1 µM | 25.9 µM | 13.7 µM | > 100 µM | 4.92 µM | 65.3 µM
NS(=O)(=O)c1ccc(N2N=C3c4ccccc4CCC3C2c2ccc(Br)cc2)cc1 (configuration not stated) | 28.8 µM | 36.5 µM | 6.31 µM | > 100 µM | 26.3 µM | 69.3 µM
COc1cc2ncnc(Nc3ccc(F)c(Cl)c3)c2cc1OCCCN1CCOCC1 [GEFITINIB] |  |  |  |  |  | 52 µM
NS(=O)(=O)c1ccc(N2N=C3c4ccccc4OCC3C2c2c(F)cccc2Cl)cc1 (configuration not stated) | 8.49 µM | 40.5 µM | 7.76 µM | > 100 µM | 16.3 µM | 66.2 µM
NS(=O)(=O)c1ccc(N2N=C3c4ccccc4OCC3C2c2ccc(Cl)cc2)cc1 (configuration not stated) | 3.76 µM | 28 µM | 7.73 µM | > 100 µM | 8.24 µM | 61.4 µM
COc1ccccc1C1C2COc3ccccc3C2=NN1c1ccc(S(N)(=O)=O)cc1 (configuration not stated) | 10.2 µM | 42.9 µM | 13.9 µM | 68.5 µM | 0.33 µM | 83.2 µM
NS(=O)(=O)c1ccc(N2N=C3c4ccccc4OCC3C2c2ccccc2Cl)cc1 (configuration not stated) | 12.1 µM | 23.9 µM | 13.2 µM | 86.8 µM | 2.28 µM | 75 µM
NS(=O)(=O)c1ccc(N2N=C3c4ccccc4CCC3C2c2ccccc2)cc1 (configuration not stated) | 5.01 µM | 5.34 µM | 25.5 µM | > 100 µM | 8.34 µM | 66.9 µM
COc1ccccc1C1C2CCc3ccccc3C2=NN1c1ccc(S(N)(=O)=O)cc1 (configuration not stated) | 11.8 µM | 59.1 µM | 14.4 µM | 96.2 µM | 2.63 µM | 67.2 µM
NS(=O)(=O)c1ccc(N2N=C3c4ccccc4OCC3C2c2ccc(Cl)cc2Cl)cc1 (configuration not stated) | 4.76 µM | 46.8 µM | 17.5 µM | 96.3 µM | 2.74 µM | 57.1 µM
NS(=O)(=O)c1ccc(N2N=C3c4ccccc4CCC3C2c2ccccc2Br)cc1 (configuration not stated) | 3.56 µM | 5.83 µM | 7.21 µM | > 100 µM | 12.7 µM | 61.1 µM
COc1ccc(C2C3COc4ccccc4C3=NN2c2ccc(S(N)(=O)=O)cc2)cc1 (configuration not stated) | 15.8 µM | 20.2 µM | 7.29 µM | 78.1 µM | 1.02 µM | 69.5 µM
NS(=O)(=O)c1ccc(N2N=C3c4ccccc4CCC3C2c2cccc(O)c2)cc1 (configuration not stated) | 33.3 µM | 11 µM | 4.82 µM | 86.2 µM | 1.76 µM | 69.2 µM
COc1cccc(C2C3CCc4ccccc4C3=NN2c2ccc(S(N)(=O)=O)cc2)c1 (configuration not stated) | 1.78 µM | 10.4 µM | 19.1 µM | 85.5 µM | 1.12 µM | 68.2 µM
NS(=O)(=O)c1ccc(N2N=C3c4ccccc4CCC3C2c2ccc(Cl)cc2Cl)cc1 (configuration not stated) | 53.2 µM | 13.7 µM | 3.57 µM | > 100 µM | 32.3 µM | 64 µM
Cc1ccccc1C1C2COc3ccccc3C2=NN1c1ccc(S(N)(=O)=O)cc1 (configuration not stated) | 22.2 µM | 41.2 µM | 36.7 µM | 59.4 µM | 0.46 µM | 64.8 µM
NS(=O)(=O)c1ccc(N2N=C3c4ccccc4CCC3C2c2c(F)cccc2Cl)cc1 (configuration not stated) | 37.4 µM | 24.4 µM | 5.28 µM | 99.8 µM | 3.66 µM | 68.3 µM
NS(=O)(=O)c1ccc(N2N=C3c4ccccc4OCC3C2c2ccc(Br)cc2)cc1 (configuration not stated) | 7.3 µM | 46 µM | 8.4 µM | > 100 µM | 6.88 µM | 63.2 µM
Cc1ccc(-c2cc(C(F)(F)F)nn2-c2ccc(S(N)(=O)=O)cc2)cc1 [CELECOXIB] | 4.56 µM | 5.94 µM | 7.35 µM |  |  | 72.4 µM
NS(=O)(=O)c1ccc(N2N=C3c4ccccc4CCC3C2c2ccc(F)cc2)cc1 (configuration not stated) | 3.06 µM | 6.89 µM | 22.4 µM | > 100 µM | 15.3 µM | 59.8 µM
NS(=O)(=O)c1ccc(N2N=C3c4ccccc4CCC3C2c2cccc(F)c2)cc1 (configuration not stated) | 11.2 µM | 59.1 µM | 5.06 µM | > 100 µM | 4.83 µM | 57.9 µM
Cc1cccc(C2C3CCc4ccccc4C3=NN2c2ccc(S(N)(=O)=O)cc2)c1 (configuration not stated) | 9.06 µM | 29.4 µM | 18 µM | 91.5 µM | 2.48 µM | 67.2 µM
NS(=O)(=O)c1ccc(N2N=C3c4ccccc4OCC3C2c2ccccc2F)cc1 (configuration not stated) | 35.2 µM | 30.5 µM | 9.87 µM | > 100 µM | 7.24 µM | 70.5 µM
Cc1ccccc1C1C2CCc3ccccc3C2=NN1c1ccc(S(N)(=O)=O)cc1 (configuration not stated) | 2.93 µM | 8.29 µM | 30.1 µM | 99.9 µM | 3.28 µM | 70.8 µM
NS(=O)(=O)c1ccc(N2N=C3c4ccccc4OCC3C2c2ccccc2Br)cc1 (configuration not stated) | 12 µM | 27.8 µM | 2.94 µM | 90.2 µM | 1.26 µM | 81.6 µM
NS(=O)(=O)c1ccc(N2N=C3c4ccccc4CCC3C2c2ccccc2F)cc1 (configuration not stated) | 3.18 µM | 13.2 µM | 37.2 µM | > 100 µM | 11.9 µM | 57.9 µM
NS(=O)(=O)c1ccc(N2N=C3c4ccccc4CCC3C2c2cccc(Br)c2)cc1 (configuration not stated) | 28 µM | 53.5 µM | 11.7 µM | 100 µM | 3.48 µM | 52.6 µM
Cc1ccc(C2C3CCc4ccccc4C3=NN2c2ccc(S(N)(=O)=O)cc2)cc1 (configuration not stated) | 17.1 µM | 4.24 µM | 9.86 µM | 88.4 µM | 2.16 µM | 63.6 µM
NS(=O)(=O)c1ccc(N2N=C3c4ccccc4CCC3C2c2ccc(C(F)(F)F)cc2)cc1 (configuration not stated) | 5.72 µM | 33.9 µM | 11.2 µM | > 100 µM | 18.3 µM | 55.2 µM
